Measurements published in PMC6354023, “A phase I study of the HDM2 antagonist SAR405838 combined with the MEK inhibitor pimasertib in patients with advanced solid tumours” (British Journal of Cancer, 2018).
Read-outs that look alike come from different tables or passages of the source.

What was measured:
[1] = Pharmacokinetics of SAR405838 (whole-blood concentrations) in combination; type: in vivo, human; conditions: for AUC(0-t) / Cmax / half-life / Tmax: human, whole blood, oral; for AUC(0-t): read-out: SAR405838 AUC0–24, mean ± SD; for Cmax: read-out: SAR405838 Cmax, mean ± SD; for half-life: read-out: SAR405838 t1/2 (converted); for Tmax: read-out: SAR405838 tmax, median (range)
Excerpt: Blood samples were collected on Days 1 (for pimasertib only), 2, 3, 8 and 15 of Cycle 1, on Days 1 and 2 of Cycle 2, and on Day 1 of Cycles 3 and 4, to determine the whole-blood and plasma concentrations of SAR405838 and pimasertib, respectively.

[2] = cited from earlier work
MIC-1 = MIC-1 levels in plasma by ELISA; type: in vivo, human
Method: MIC-1 protein concentrations were measured in plasma samples using an analytically validated enzyme-linked immunosorbent assay (Quantikine® Human GDF-15 immunoassay). pERK levels were determined by evaluating median value changes in response to ex vivo stimulation with or without phorbol myristate acetate (PMA) over time in whole-blood samples (CD 45^+ and lymphocyte populations) by flow cytometry (BD FACSCanto™ II instrument). Stimulated pERK levels were calculated as percentage (PMA-dimethylsulphoxide [DMSO])/DMSO).

[3] = Safety assessments: adverse events (NCI-CTCAE v4.03), laboratory abnormalities; type: in vivo, human; conditions: of 26 treated patients, in combination
Method: Safety was assessed by the evaluation of AEs, DLTs, changes in vital signs, ECOG PS, physical examinations,12-lead electrocardiograms, determination of LVEF, ophthalmological examinations and clinical laboratory tests (including haematology, coagulation, blood chemistry and urinalysis).

[4] = DL1 SAR405838 200 mg QD + pimasertib 45 mg BID, C1D2
[5] = DL1 SAR405838 200 mg QD + pimasertib 45 mg BID, C2D1
[6] = DL2a SAR405838 200 mg QD + pimasertib 60 mg QD, C1D2
[7] = DL2a SAR405838 200 mg QD + pimasertib 60 mg QD, C2D1
[8] = DL2b SAR405838 300 mg QD + pimasertib 45 mg BID, C1D2
[9] = DL2b SAR405838 300 mg QD + pimasertib 45 mg BID, C2D1
[10] = DL3a SAR405838 300 mg QD + pimasertib 60 mg QD, C1D2
[11] = DL3a SAR405838 300 mg QD + pimasertib 60 mg QD, C2D1

## CC(C)(C)C[C@@H]1N[C@@H](C(=O)N[C@H]2CC[C@H](O)CC2)[C@H](c2cccc(Cl)c2F)[C@]12C(=O)Nc1cc(Cl)ccc12 [SAR405838]
[1]; SAR405838 and pimasertib administered in combination
  PK in combination compared with PK as monotherapy: similar
[1]; between DL1/DL2a (SAR405838 200 mg) and DL2b/DL3a (SAR405838 300 mg)
  Exposure change with dose increase (50%): did not result in SAR405838 exposure increase
[1]; [4]
  AUC(0-t): 19.3 µg·h/mL
  Cmax: 1.57 ± 0.876 µg/mL
  half-life: 16.1 ± 7.75 h
  Tmax: 2 h
[1]; [5]
  AUC(0-t): 14.6 µg·h/mL
  Cmax: 1.25 ± 0.668 µg/mL
  half-life: 10.8 h
  Tmax: 1.8 h
[1]; [6]
  AUC(0-t): 20.8 µg·h/mL
  Cmax: 1.5 ± 0.634 µg/mL
  half-life: 8.86 h
  Tmax: 2 h
[1]; [7]
  AUC(0-t): 15.6 µg·h/mL
  Cmax: 1.05 ± 0.581 µg/mL
  half-life: 10 h
  Tmax: 2.8 h
[1]; [8]
  AUC(0-t): 16.3 µg·h/mL
  Cmax: 1.1 ± 0.547 µg/mL
  half-life: 15.5 ± 4.33 h
  Tmax: 3 h
[1]; [9]
  AUC(0-t): 15 µg·h/mL
  Cmax: 1.1 ± 0.361 µg/mL
  half-life: 13.4 ± 2.38 h
  Tmax: 1.5 h
[1]; [10]
  AUC(0-t): 21.4 µg·h/mL
  Cmax: 1.49 ± 0.939 µg/mL
  half-life: 13.3 ± 4.94 h
  Tmax: 4 h
[1]; [11]
  AUC(0-t): 21.2 µg·h/mL
  Cmax: 1.44 ± 0.583 µg/mL
  half-life: 14.9 ± 11.1 h
  Tmax: 2 h
[2]
  Main dose-limiting toxicity, monotherapy: thrombocytopenia
[2]; once daily (QD)
  MTD and recommended phase II dose, monotherapy: 300 mg
MIC-1; C1D2 and C2D1
  Time of peak MIC-1 elevation: 6 h
MIC-1; patient with confirmed PR (endometrial tumour)
  Greatest increase in MIC-1 in the DL1 cohort: 8.8 fold
MIC-1; plasma, all patients at C1D2 and C2D1
  MIC-1 elevation, mean vs baseline: 3.5+ /− 0.8 fold
[3]
  Patients with dose modification, reduction or omission: 17 patients
